Experimental data published in patent publication EP4818178A1, “PREPARATION AND USE OF PYRIMIDOTHIOPYRANONE KRAS MUTANT PROTEIN INHIBITOR” (Ya Therapeutics Inc, priority 2024, dated 2025).

Target: KRasG12D (Homo sapiens, UniProt P01116, G12D)
Experiment: KRAS inhibitory activity test, TR-FRET (inhibition of binding of KRasG12D to GTP, SOS/GTP nucleotide exchange)
Type: biochemical
Settings: read-out: IC50 values of the compounds for inhibiting KRAS enzymes, G12D
Experimental: • 1. […] Reagent Preparation: • a. Storage Reagents:
Prepare a 1L solution by mixing 20mL of 1000mM HEPES, 20mL of 500mM EDTA, 10mL of 5M sodium chloride, 0.1mL of 100% Tween 20, and 949.9mL of water. Sterilize by filtration and store at 4°C.
Prepare a 1L solution by mixing 20mL of 1000mM HEPES, 10mL of 1000mM magnesium chloride, 30mL of 5M sodium chloride, 0.05mL of 100% Tween 20, and 939.95mL of water. Sterilize by filtration and store at 4°C. 3) KRAS/Bodipy GDP/Tb-SA Mixture: Mix 9.5 µL of 95 µM KRasG12D protein with 440.5 µL of KRAS nucleotide exchange buffer. Incubate at room temperature for 1 hour. Then, mix with 8.4 µL of 17.9 µM Tb-SA, 1.8 µL of 5 mM Bodipy GDP, and 9539.8 µL of KRAS experimental buffer to prepare […]. After mixing, incubate at room temperature for 6 hours and store at -80°C.
• 1) KRAS Enzyme Solution: Mix 73.3 µL of KRAS/Bodipy GDP/Tb-SA mixture with 2126.7 µL of KRAS experimental buffer to prepare a 2200 µL solution. • 2) SOS/GTP Mixture
c. Experimental Procedure: Mix 1.59 µL of 166 µM SOS protein with 198 µL of 100 mM... GTP and 0.41 µL KRAS buffer were prepared to a 2200 µL solution. The stock solution concentration of the control compound was 1 mM, and the stock solution concentration of the test compound was 10 mM. 9 µL of the control compound and the test compound were transferred to a 384-LDV plate. The compound on the LDV plate was 3-fold diluted 10-point using Bravo. 9 nL of the compound on the LDV plate was transferred to the experimental plate using ECHO. 3 µL of a 3 nM Kras/0.5 nM TB-SA/30 nM BodipyGDP mixture and 3 µL of Ras buffer were added to each well of the experimental plate using a Dragonfly autopilot. The plate was centrifuged at 1000 rpm for 1 minute. The plate was incubated at room temperature for 1 hour. 3 µL of 120 nM SOS/9 mM KRAS buffer was added to each well of the experimental plate using a Dragonfly autopilot. The […] was centrifuged at 1000 rpm for 1 minute; the plate was incubated at room temperature for 1 hour; the plate was read and the data were recorded using Envision; the data were analyzed using Excel and Xlfit to calculate the IC50of the test compound. "++++" indicates IC50≤ 10 nM; "+++" indicates 10 nM < IC50≤ 100 nM; "++" indicates 100 nM < IC50≤ 2000 nM; "+" indicates 2000 nM < IC50.

Sequence of KRasG12D (P01116 1-188 isoform P01116-2 G12D): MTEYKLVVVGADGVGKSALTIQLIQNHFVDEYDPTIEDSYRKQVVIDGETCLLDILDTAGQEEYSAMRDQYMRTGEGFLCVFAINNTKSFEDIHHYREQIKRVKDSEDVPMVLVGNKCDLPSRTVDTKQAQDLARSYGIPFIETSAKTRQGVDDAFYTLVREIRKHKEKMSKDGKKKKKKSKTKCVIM

SMILES | IC50
Cc1cc(O)nc([C@H]2Cc3nc(OC[C@@]45CCCN4C[C@H](F)C5)nc(N4C[C@H]5CC[C@@H](C4)N5)c3CS2(=O)=O)c1C(F)(F)F [Compound 4B, (7R)-4-((1R,5S)-3,8-diazabicyclo[3.2.1]octane-3-yl)-2-(((2R,7AS)-2-fluorotetrahydro-1H-pyrrolazin-7a(5H)-yl)methoxy)-7-(6-hydroxy-4-methyl-3-(trifluoromethyl)pyridin-2-yl)-7,8-dihydro-5H-thiopyrano[4,3-d]pyrimidine-6,6-dioxide] | 10 to 100 nM
Cc1cc(N)cc(C2Cc3nc(OC[C@@]45CCCN4C/C(=C\F)C5)nc(N4CC5CCC(C4)N5)c3CS2(=O)=O)c1C(F)(F)F (some centres unmarked) [Compound 35] | ≤ 10 nM
Cc1cc(N)nc(C2Cc3nc(OC[C@@]45CCCN4CC(=CF)C5)nc(N4CC5CCC(C4)N5)c3CS2(=O)=O)c1C(F)(F)F (stereo partly drawn) [Compound 19, 7-(6-amino-4-methyl-3-(trifluoromethyl)pyridin-2-yl)-2-(((S)-2-(fluoromethylene)tetrahydro-1H-pyrrolazin-7a(5H)-yl)methoxy)-4-(3,8-diazabicyclo[3.2.1]octane-3-yl)-7,8-dihydro-5H-thiopyrano[4,3-d]pyrimidine-6,6-dioxide] | ≤ 10 nM
Cc1cc(N)c(F)c([C@@H]2Cc3nc(OC[C@@]45CCCN4C[C@H](F)C5)nc(N4C[C@H]5CC[C@@H](C4)N5)c3CS2(=O)=O)c1C(F)(F)F [Compound 1A, (7S)-7-(3-amino-2-fluoro-5-methyl-6-(trifluoromethyl)phenyl)-4-((1R,5S)-3,8-diazabicyclo[3.2.1]octane-3-yl)-2-(((2R,7AS)-2-fluorotetrahydro-1H-pyrrolazin-7a(5H)-yl)methoxy)-7,8-dihydro-5H-thiopyrano[4,3-d]pyrimidine 6,6-Dioxide] | ≤ 10 nM
Cc1cc(N)nc([C@@H]2Cc3nc(OC[C@@]45CCCN4CC(=CF)C5)nc(N4CC5CCC(C4)N5)c3CS2(=O)=O)c1C(F)(F)F [Compound 19A, (7S)-7-(6-amino-4-methyl-3-(trifluoromethyl)pyridin-2-yl)-2-(((S)-2-(fluoromethylene)tetrahydro-1H-pyrrolazin-7a(5H)-yl)methoxy)-4-(3,8-diazabicyclo[3.2.1]octane-3-y 1)-7,8-dihydro-5H-thiopyrano[4,3-d]pyrimidine-6,6-dioxide] | ≤ 10 nM
Cc1cc(N)nc([C@H]2Cc3nc(OC[C@@]45CCCN4C[C@H](F)C5)nc(N4CCC[C@@](C)(O)C4)c3CS2(=O)=O)c1C(F)(F)F [Compound 8B, (7R)-7-(6-amino-4-methyl-3-(trifluoromethyl)pyridin-2-yl)-2-(((2R,7AS)-2-fluorotetrahydro-1H-pyrrolazin-7a(5H)-yl)methoxy)-4-((R)-3-hydroxy-3-methylpiperidin-1-yl) -7,8-dihydro-5H-thiopyrano[4,3-d]pyrimidine-6,6-dioxide] | 10 to 100 nM
CC#Cc1cc(N)c(F)c([C@@H]2Cc3nc(OC[C@@]45CCCN4C/C(=C\F)C5)nc(N4CC5CCC(C4)N5)c3CS2(=O)=O)c1C(F)(F)F [Compound 24A, (7S)-7-(3-amino-2-fluoro-5-(prop-1-yn-1-yl)-6-(trifluoromethyl)phenyl)-4-(3,8-diazabicyclo[3.2.1]octane-3-yl)-2-(((S)-2-(fluoromethylene)tetrahydro-1H-pyrrolazin-7a(5 H)-yl)methoxy)-7,8-dihydro-5H-thiopyrano[4,3-d]pyrimidine-6,6-dioxide] | ≤ 10 nM
Cc1cc(N)nc([C@@H]2Cc3nc(OC[C@@]45CCCN4C[C@H](F)C5)nc(N4C[C@H]5CC[C@@H](C4)N5)c3CS2(=O)=O)c1C(F)(F)F [Compound 3A, (7S)-7-(6-amino-4-methyl-3-(trifluoromethyl)pyridin-2-yl)-4-((1R,5S)-3,8-diazabicyclo[3.2.1]octane-3-yl)-2-(((2R,7AS)-2-fluorotetrahydro-1H-pyrrolazin-7a(5H)-yl)methoxy)-7,8-dihydro-5H-thiopyrano[4,3-d]pyrimidine 6,6-Dioxide] | 10 to 100 nM
CC#Cc1cc(N)cc(C2Cc3nc(OC[C@@]45CCCN4C/C(=C\F)C5)nc(N4CC5CCC(C4)N5)c3CS2(=O)=O)c1C(F)(F)F (some centres unmarked) [Compound 32] | ≤ 10 nM
C=C1CN2CCC[C@@]2(COc2nc3c(c(N4CC5CCC(C4)N5)n2)CS(=O)(=O)C(c2nc(N)cc(C)c2C(F)(F)F)C3)C1 (stereo partly drawn) [Compound 20, 7-(6-amino-4-methyl-3-(trifluoromethyl)pyridin-2-yl)-2-(((S)-2-(methylene)tetrahydro-1H-pyrrolazin-7a(5H)-yl)methoxy)-4-(3,8-diazabicyclo[3.2.1]octane-3-yl)-7,8-dihy dro-5H-thiopyrano[4,3-d]pyrimidine-6,6-dioxide] | ≤ 10 nM
Cc1cc(N)c(F)c([C@@H]2Cc3nc(OC[C@@]45CCCN4CC(=C(F)F)C5)nc(N4CC5CCC(C4)N5)c3CS2(=O)=O)c1C(F)(F)F [Compound 9A, (7S)-7-(3-amino-2-fluoro-5-methyl-6-(trifluoromethyl)phenyl)-4-(3,8-diazabicyclo[3. 2.1]octane-3-yl)-2-(((S)-2-(difluoromethylene)tetrahydro-1H-pyrrolazin-7a(5H)-yl)methoxy)-7,8-dihydro-5H-thiopyrano[4,3-d]pyrimidine-6,6-dioxide] | ≤ 10 nM
Cc1cc(N)cc(C2Cc3nc(OC[C@@]45CCCN4CC(=C(F)F)C5)nc(N4CC5CCC(C4)N5)c3CS2(=O)=O)c1C(F)(F)F (some centres unmarked) [Compound 40] | ≤ 10 nM
Cc1cc(O)c(F)c([C@H]2Cc3nc(OC[C@@]45CCCN4C[C@H](F)C5)nc(N4C[C@H]5CC[C@@H](C4)N5)c3CS2(=O)=O)c1C(F)(F)F [Compound 2B, (7R)-4-((1R,5S)-3,8-diazabicyclo[3.2.1]octane-3-yl)-7-(2-fluoro-3-hydroxy-5-methyl-6-(trifluoromethyl)phenyl)-2-(((2R,7AS)-2-fluorotetrahydro-1H-pyrrolazin-7a(5H)-yl)methoxy)-7,8-dihydro-5H-thiopyrano[4,3-d]pyrimidine-6,6-dioxide] | ≤ 10 nM
Cc1cc(N)nc([C@@H]2Cc3nc(OC[C@@]45CCCN4C[C@H](F)C5)nc(N4CCC[C@@](C)(O)C4)c3CS2(=O)=O)c1C(F)(F)F [Compound 7A, (7S)-7-(6-amino-4-methyl-3-(trifluoromethyl)pyridin-2-yl)-2-(((2R,7AS)-2-fluorotetrahydro-1H-pyrrolazin-7a(5H)-yl)methoxy)-4-((R)-3-hydroxy-3-methylpiperidin-1-yl) -7,8-dihydro-5H-thiopyrano[4,3-d]pyrimidine-6,6-dioxide] | ≤ 10 nM
Cc1cc(N)c(F)c([C@@H]2Cc3nc(OC[C@@]45CCCN4C[C@H](F)C5)nc(N4CCC[C@@](C)(O)C4)c3CS2(=O)=O)c1C(F)(F)F [Compound 5A, (7S)-7-(3-amino-2-fluoro-5-methyl-6-(trifluoromethyl)phenyl)-2-(((2R,7AS)-2-fluorotetrahydro-1H-pyrrolazin-7a(5H)-yl)methoxy)-4-((R)-3-hydroxy-3-methylpiperidin-1-yl)-7,8-dihydro-5H-thiopyrano[4,3-d]pyrimidine-6,6-dioxide] | 10 to 100 nM
Cc1cc(N)c(F)c([C@@H]2Cc3nc(OC[C@@]45CCCN4C[C@H](F)C5)nc(N4C[C@H]5CC[C@@H](C4)N5)c3CS2(=O)=O)c1C(F)(F)F [Compound 30A, (7S)-7-(3-amino-2-fluoro-5-methyl-6-(trifluoromethyl)phenyl)-4-((1R,5S)-3,8-diazabicyclo[3.2.1]octane-3-yl)-2-(((2R,7AS)-2-fluorotetrahydro-1H-pyrrolazin-7a(5H)-yl)methoxy)-7,8-dihydro-5H-thiopyrano[4,3-d]pyrimidine 6,6-Dioxide] | ≤ 10 nM
Cc1cc(N)c(F)c([C@@H]2Cc3nc(OC[C@@]45CCCN4C[C@H](F)C5)nc(N4C[C@H]5CC[C@@H](C4)N5)c3CS2(=O)=O)c1C(F)(F)F [Compound 38A, (7S)-7-(3-amino-2-fluoro-5-methyl-6-(trifluoromethyl)phenyl)-4-((1R,5S)-3,8-diazabicyclo[3.2.1]octane-3-yl)-2-(((2R,7AS)-2-fluorotetrahydro-1H-pyrrolazin-7a(5H)-yl)methoxy)-7,8-dihydro-5H-thiopyrano[4,3-d]pyrimidine 6,6-Dioxide] | ≤ 10 nM
